What was measured:
Assay type in all cases: cell-based
[1] = system: human pulmonary artery endothelial cells (hPAEC); experiment: BrdU cell proliferation assay, 10% FBS, hPAEC
Method: (§1) BrdU (5-bromo-2-deoxyuridine) cell proliferation assay (BrdU assay)
(§2) A 48-well plate was used, and 1.5×10^4 cells were implanted in each well. After 24 hours, the medium was changed to serum-free culture medium and synchronized for 24 hours. A 2-fold concentration of the compound in serum-free culture medium is prepared and the cells were pretreated for 1 hour. Then, the same volume of culture medium containing 20% fetal bovine serum (FBS) was added to dilute the compound. The final concentration was 10% FBS culture medium and 1 times the concentration of the compound. In the experimental group that added TGF-β, the same volume of TGF-β culture medium containing 10 ng/mL was added, with a final concentration of 5 ng/mL TGF-β and 1 times the concentration of the compound, and in the experimental group added with TGF-β, the entire process was conducted in culture medium containing 0.1% serum. Then, BrdU reagent was added about 6 hours later, and the cells were collected the next day for enzyme-linked immunosorbent assay (ELISA) analysis, the compound treatment time was about 24 hours, and the BrdU treatment time was about 18 hours.
(§3) Five compounds to be tested were screened by cell survival assay (MTT assay) and BrdU (5-bromo-2-deoxyuridine) cell proliferation assay, and the information of these compounds was listed in Table 1 below. Tables 2 and 3 respectively listed the growth inhibitions of on human pulmonary artery endothelial cells (hPAEC), human pulmonary artery smooth muscle cells (hPASMC), normal rat pulmonary artery smooth muscle cells (rPASMC, as the control group, represented by “CON”), and rat pulmonary artery smooth muscle cells (represented by “MCT”), by the five compounds to be tested under the conditions of 10% FBS, 0.1% FBS and 100 pM TGF-β.

[2] = system: human pulmonary artery endothelial cells (hPAEC); experiment: BrdU cell proliferation assay, 0.1% FBS, 100 pM TGF-β, hPAEC; conditions: hPAEC, 100 pM TGF-β, 0.1% FBS
Method: as §1, §2, §3

[3] = system: human pulmonary artery smooth muscle cells (hPASMC); experiment: BrdU cell proliferation assay, 10% FBS, hPASMC
Method: as §1, §2, §3

[4] = system: normal rat pulmonary artery smooth muscle cells (rPASMC CON); experiment: BrdU cell proliferation assay, 10% FBS, rPASMC CON
Method: as §1, §2, §3

[5] = system: normal rat pulmonary artery smooth muscle cells (rPASMC CON); experiment: BrdU cell proliferation assay, 0.1% FBS, 100 pM TGF-β, rPASMC CON; conditions: 100 pM TGF-β
Method: as §1
as §2, with “with a final concentration of 5 ng/mL TGF-β and 1 times the concentration” left out
Five compounds to be tested were screened by cell survival assay (MTT assay) and BrdU (5-bromo-2-deoxyuridine) cell proliferation assay, and the information of these compounds was listed in Table 1 below.

[6] = system: PAH rat pulmonary artery smooth muscle cells (rPASMC MCT); experiment: BrdU cell proliferation assay, 0.1% FBS, 100 pM TGF-β, rPASMC MCT; conditions: 100 pM TGF-β
Method: as §1, §2, §3

[7] = system: PAH rat pulmonary artery smooth muscle cells (rPASMC MCT); experiment: BrdU cell proliferation assay, 10% FBS, rPASMC MCT
Method: as §1, §2, §3

[8] = Rattus norvegicus, read-out: EC50 (concentration for 50% of maximal effect)

For CC(C)CCCC(C)C1CCC2C3=CC=C4CC(O)CCC4(C)C3CCC21C (centres unmarked) [Code 039, 7-DHC], the EC50 ([1]; Homo sapiens, Endothelial cell, read-out: EC50 (concentration for 50% of maximal effect)) was 47 µM, the “Inhibition of cell growth (in words)” value ([1]; hPAEC, 10% FBS, FIG. 2) was “inhibition of cell growth can also be observed” and the EC50 ([2]; Homo sapiens, Endothelial cell, read-out: EC50) was 23 µM. For the same molecule, the “Inhibition of cell growth (in words)” value ([2]; 25 μM, FIG. 3) was “inhibition of cell growth”, the EC50 ([3]; Homo sapiens, read-out: EC50 (concentration for 50% of maximal effect)) was 53 µM and the “Inhibition of cell growth (in words)” value ([3]; hPASMC, 10% FBS, FIG. 2) was “inhibition of cell growth can also be observed”. The EC50 [4, 8] was 38 µM, the “Inhibition of cell growth (in words)” value ([4]; rPASMC CON1, 10% FBS, FIG. 2) was “significant inhibitory effects” and the EC50 ([5]; Rattus norvegicus, CON (normal rPASMC), 0.1% FBS, read-out: EC50) was 30 µM. The “Inhibition of cell growth (in words)” value ([5]; rPASMC CON3, 0.1% FBS, 25 μM, FIG. 3) was “significant inhibitory effects”, the EC50 ([6]; Rattus norvegicus, MCT (PAH rPASMC), 0.1% FBS, read-out: EC50) was 20 µM and the “Inhibition of cell growth (in words)” value ([6]; rPASMC MCT2, 0.1% FBS, 25 μM, FIG. 3) was “significant inhibitory effects”. For the same molecule, the EC50 [7, 8] was 37 µM and the “Inhibition of cell growth (in words)” value ([7]; rPASMC MCT4, 10% FBS, FIG. 2) was “significant inhibitory effects”.

Source: patent publication US20240408112A1, “METHOD FOR PREVENTING OR TREATING PULMONARY ARTERIAL HYPERTENSION BY USING 7-DEHYDROCHOLESTEROLS OR SALTS, OXIDES, METABOLITES, OR DERIVATIVES THEREOF” (EXCELSIOR PHARMATECH LABS., priority 2023, published 2024)
